Measured values from patent US20240199558A1, “2,4,6-TRISUBSTITUTED 1,3,5-TRIAZINES AS MODULATORS OF CX3CR1” (ASTRAZENECA AB, priority 2022, published 2024).

Molecular target: CX3CR1 (Homo sapiens (Human), UniProt P49238)
Assay: hCX3CR1 [3H]-AZD8797 competitive binding assay (filter)
Conditions: CHO-hCX3CR1 membranes, 2 nM [3H]-AZD8797
Method in brief: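 CHO-hCX3CR1 membranes (9 μg/well) were incubated 2 h at room temperature with 2 nM [3H]-AZD8797 and varying competitor concentrations. Buffer: 25 mM HEPES pH 7.4, 10 mM MgCl2, 1 mM CaCl2, 0.5% BSA, 1% DMSO. Bound ligand was collected by vacuum filtration, washed in ice-cold buffer with 500 mM NaCl, and counted by scintillation.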

CX3CR1, sequence (P49238 whole entry): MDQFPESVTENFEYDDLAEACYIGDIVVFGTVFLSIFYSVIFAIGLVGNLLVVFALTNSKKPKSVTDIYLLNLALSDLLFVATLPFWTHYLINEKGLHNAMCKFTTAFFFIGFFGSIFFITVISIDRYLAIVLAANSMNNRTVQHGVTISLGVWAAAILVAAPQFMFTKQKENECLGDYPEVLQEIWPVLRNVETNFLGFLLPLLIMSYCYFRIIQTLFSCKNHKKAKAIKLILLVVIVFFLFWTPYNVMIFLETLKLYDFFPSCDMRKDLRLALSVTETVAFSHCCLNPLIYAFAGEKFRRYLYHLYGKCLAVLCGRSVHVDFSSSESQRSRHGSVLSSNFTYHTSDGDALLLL

Point of comparison: `CC(C)C[C@H](CO)Nc1nc(CC(C)c2ccc(C(=O)N(C)C)c(F)c2)nc(NS(C)(=O)=O)n1` (stereo partly drawn) [Example 116, 2-Fluoro-4-(1-(4-(((R)-1-hydroxy-4-methylpentan-2-yl)amino)-6-(methylsulfonamido)-1,3,5-triazin-2-yl)propan-2-yl)-N,N-dimethylbenzamide], IC50 282 nM. Against it:
- CC(C)C[C@H](CO)Nc1nc(CC(C)c2ccc(CC#N)cc2)nc(NS(C)(=O)=O)n1 (stereo partly drawn) [Example 55, N-(4-(2-(4-(Cyanomethyl)phenyl)propyl)-6-(((R)-1-hydroxy-4-methylpentan-2-yl)amino)-1,3,5-triazin-2-yl)methanesulfonamide] — 2-fold lower, 139 nM
- CNC(=O)c1ccc(C(C)Cc2nc(N[C@@H](CO)CC(C)C)nc(NS(C)(=O)=O)n2)cc1F (stereo partly drawn) [Example 120, 2-Fluoro-4-(1-(4-(((R)-1-hydroxy-4-methylpentan-2-yl)amino)-6-(methylsulfonamido)-1,3,5-triazin-2-yl)propan-2-yl)-N-methylbenzamide] — within 1.5-fold, 230 nM
- COc1c(F)cccc1C(C)Cc1nc(N[C@@H](CO)CC(C)C)nc(NS(C)(=O)=O)n1 (stereo partly drawn) [Example 160, N-(4-(2-(3-Fluoro-2-methoxyphenyl)propyl)-6-(((R)-1-hydroxy-4-methylpentan-2-yl)amino)-1,3,5-triazin-2-yl)methanesulfonamide] — within 1.5-fold, 350 nM
- CC(=O)Nc1ccc(C(C)Cc2nc(N[C@@H](CO)CC(C)C)nc(NS(C)(=O)=O)n2)cc1 (stereo partly drawn) [Example 59, N-(4-(1-(4-(((R)-1-Hydroxy-4-methylpentan-2-yl)amino)-6-(methylsulfonamido)-1,3,5-triazin-2-yl)propan-2-yl)phenyl)acetamide] — within 1.5-fold, 292 nM
- CC(C)C[C@H](CO)Nc1nc(CC(C)c2cnc3ccccc3c2)nc(NS(C)(=O)=O)n1 (stereo partly drawn) [Example 134, N-(4-(((R)-1-Hydroxy-4-methylpentan-2-yl)amino)-6-(2-(quinolin-3-yl)propyl)-1,3,5-triazin-2-yl)methanesulfonamide] — within 1.5-fold, 203 nM
- COc1cccc(C(C)Cc2nc(N[C@@H](CO)CC(C)C)nc(NS(C)(=O)=O)n2)c1 (stereo partly drawn) [Example 92, N-(4-(((R)-1-Hydroxy-4-methylpentan-2-yl)amino)-6-(2-(3-methoxyphenyl)propyl)-1,3,5-triazin-2-yl)methanesulfonamide] — 2.5-fold lower, 112 nM
- CC(C)C[C@H](CO)Nc1nc(CC(C)c2ccc3c(c2)OCC(=O)N3C)nc(NS(C)(=O)=O)n1 (stereo partly drawn) [Example 129, N-(4-(((R)-1-Hydroxy-4-methylpentan-2-yl)amino)-6-(2-(4-methyl-3-oxo-3,4-dihydro-2H-benzo[b][1,4]oxazin-7-yl)propyl)-1,3,5-triazin-2-yl)methanesulfonamide] — 1.7-fold lower, 169 nM
- COc1cc(F)ccc1C(C)Cc1nc(N[C@@H](CO)CC(C)C)nc(NS(C)(=O)=O)n1 (stereo partly drawn) [Example 162, N-(4-(2-(4-Fluoro-2-methoxyphenyl)propyl)-6-(((R)-1-hydroxy-4-methylpentan-2-yl)amino)-1,3,5-triazin-2-yl)methanesulfonamide] — 4.7-fold higher, 1320 nM
- CC(C)C[C@H](CO)Nc1nc(CC(C)c2ccc3ncoc3c2)nc(NS(C)(=O)=O)n1 (stereo partly drawn) [Example 61, N-(4-(2-(Benzo[d]oxazol-6-yl)propyl)-6-(((R)-1-hydroxy-4-methylpentan-2-yl)amino)-1,3,5-triazin-2-yl)methanesulfonamide] — 3.7-fold lower, 76 nM
- CC(C)C[C@H](CO)Nc1nc(CC(C)c2ccc3ncn(C)c(=O)c3c2)nc(NS(C)(=O)=O)n1 (stereo partly drawn) [Example 124, N-(4-(((R)-1-Hydroxy-4-methylpentan-2-yl)amino)-6-(2-(3-methyl-4-oxo-3,4-dihydroquinazolin-6-yl)propyl)-1,3,5-triazin-2-yl)methanesulfonamide] — 2.2-fold lower, 126 nM
- COCc1ccc(C(C)Cc2nc(N[C@@H](CO)CC(C)C)nc(NS(C)(=O)=O)n2)cc1 (stereo partly drawn) [Example 69, N-(4-(((R)-1-Hydroxy-4-methylpentan-2-yl)amino)-6-(2-(4-(methoxymethyl)phenyl)propyl)-1,3,5-triazin-2-yl)methanesulfonamide] — 2.9-fold higher, 830 nM
- Cc1cc(C(C)Cc2nc(N[C@@H](CO)CC(C)C)nc(NS(C)(=O)=O)n2)ccc1F (stereo partly drawn) [Example 111, N-(4-(2-(4-Fluoro-3-methylphenyl)propyl)-6-(((R)-1-hydroxy-4-methylpentan-2-yl)amino)-1,3,5-triazin-2-yl)methanesulfonamide] — within 1.5-fold, 391 nM
- CC(C)C[C@H](CO)Nc1nc(CC(C)c2cccc3cccnc23)nc(NS(C)(=O)=O)n1 (stereo partly drawn) [Example 103, N-(4-(((R)-1-Hydroxy-4-methylpentan-2-yl)amino)-6-(2-(quinolin-8-yl)propyl)-1,3,5-triazin-2-yl)methanesulfonamide] — 17-fold lower, 17 nM
- CC(C)C[C@H](CO)Nc1nc(CC(C)c2ccc3c(=O)n(C)cnc3c2)nc(NS(C)(=O)=O)n1 (stereo partly drawn) [Example 126, N-(4-(((R)-1-Hydroxy-4-methylpentan-2-yl)amino)-6-(2-(3-methyl-4-oxo-3,4-dihydroquinazolin-7-yl)propyl)-1,3,5-triazin-2-yl)methanesulfonamide] — within 1.5-fold, 257 nM
- CCC(Cc1nc(N[C@@H](CO)CC(C)C)nc(NS(C)(=O)=O)n1)c1cnc(OC)cc1F (stereo partly drawn) [Example 49, N-(4-(2-(4-Fluoro-6-methoxypyridin-3-yl)butyl)-6-(((R)-1-hydroxy-4-methylpentan-2-yl)amino)-1,3,5-triazin-2-yl)methanesulfonamide] — 1.7-fold higher, 474 nM
- CC(C)C[C@H](CO)Nc1nc(CC(C)c2ccc(OCCN3CCOCC3)cc2)nc(NS(C)(=O)=O)n1 (stereo partly drawn) [Example 115, N-(4-(((R)-1-Hydroxy-4-methylpentan-2-yl)amino)-6-(2-(4-(2-morpholinoethoxy)phenyl)propyl)-1,3,5-triazin-2-yl)methanesulfonamide] — 1.8-fold lower, 160 nM
- CCOc1ccc(C(C)Cc2nc(N[C@@H](CO)CC(C)C)nc(NS(C)(=O)=O)n2)cc1Cl (stereo partly drawn) [Example 98, N-(4-(2-(3-Chloro-4-ethoxyphenyl)propyl)-6-(((R)-1-hydroxy-4-methylpentan-2-yl)amino)-1,3,5-triazin-2-yl)methanesulfonamide] — 1.5-fold higher, 427 nM
- COc1ccc([C@H](C)Cc2nc(N[C@@H](CO)CC(C)C)nc(NS(C)(=O)=O)n2)cc1F (single isomer, unassigned) [Example 19, N-(4-((R*)-2-(3-Fluoro-4-methoxyphenyl)propyl)-6-(((R)-1-hydroxy-4-methylpentan-2-yl)amino)-1,3,5-triazin-2-yl)methanesulfonamide] — 8.5-fold lower, 33 nM
- CC(C)C[C@H](CO)Nc1nc(C[C@@H](C)c2cc(F)c(Cl)c(F)c2)nc(NS(C)(=O)=O)n1 (single isomer, unassigned) [Example 31, N-(4-((R*)-2-(4-Chloro-3,5-difluorophenyl)propyl)-6-(((R)-1-hydroxy-4-methylpentan-2-yl)amino)-1,3,5-triazin-2-yl)methanesulfonamide] — within 1.5-fold, 287 nM
- CCOc1ccc(C(C)Cc2nc(N[C@@H](CO)CC(C)C)nc(NS(C)(=O)=O)n2)cc1F (stereo partly shown) [Example 119] — within 1.5-fold, 335 nM
- CC(C)C[C@H](CO)Nc1nc(CC(C)c2ccc3c(c2)OCO3)nc(NS(C)(=O)=O)n1 (stereo partly drawn) [Example 108, N-(4-(2-(Benzo[d][1,3]dioxol-5-yl)propyl)-6-(((R)-1-hydroxy-4-methylpentan-2-yl)amino)-1,3,5-triazin-2-yl)methanesulfonamide] — 4.9-fold lower, 58 nM
